Reference: patent US6583127B1, “Use of etherlysophospholipids as antiinflammatory agents” (Inkeysa. SA, priority 1998, dated 2003)

How the values were obtained:
[1] = test system: experimental colitis induced by TNB (2,4,6-trinitrobenzenesulphonic acid); test: Rat model of experimental colitis induced by TNB, macroscopic evaluation; format: in vivo; set-up: Wet Weight (colon): unit not given beside the values; settings: Wistar rat; for Wet Weight (colon) / Sample 2 × 6 mm / Score (0-10) / Weight/mm: Mean ± SEM
Method: The therapeutic potential for the treatment of ulcerative colitis of IEC01 at 2.5 and 5 mg/kg and IES01 at 2.5 mg/kg, was evaluated after their administration by oral route during 14 days (7 days of preventive treatment and 7 days of therapeutic treatment) using the rat model of experimental colitis induced by TNB (2,4,6-trinitrobenzenesulphonic acid). As reference parameters, the body weight, wet colon weight and score macroscopic evaluation were evaluated after 24 hours and after 7 days of the intraluminal administration of TNB in the colon. […] The inflammatory response is recognised by the presence of ulcerative fissures, faecal shatters and inflammation of bowel wall. A chronic inflammatory response was observed 7 days after the administration. An erratic response with lineal or punctual ulcers, necrosis, faecal shatters, reduction of colonic lumen, granulomas and peritoneal adherence was observed.

[2] = test system: CD11b; test: Cell surface expression of CD11b in human neutrophils (immunofluorescence flow cytometry); format: cell-based; settings: Medium = 100
Text: (§1) Isolation and treatment of neutrophils.
(§2) Monoclonal antibodies. […] The antibodies are commercially available.
(§3) Immunofluorescence flow cytometry. […] Results were expressed as relative MFI (rMFI), such that
(§4) rMFI=(MFIagent×100)/MFImedium
(§5) Background fluorescence was substracted from all values.

[3] = test system: PGE2 synthesis in human mucosal gastric biopsies; test: Ex vivo PGE2 synthesis in human mucosal gastric biopsies
Method: The ability of the gastric mucosa to generate prostaglandins estimates total cyclooxygenase (COX) activity (COX-1 plus any COX-2). To measure ex vivo prostaglandin E2 (PGE2) synthesis, normal gastric mucosal biopsies were immediately placed in Ependorff tubes containing phosphate-buffered saline (PBS). […] Each mucosal gastric biopsy was cut into different pieces (about 1 mg weight) that were subsequently weighed and incubated in the absence or in the presence of the distinct agents indicated in the corresponding Table for 20 min at 37° C. in 200 μl Hepes-glucose buffer. Then cells were mucosal gastric samples were pelleted by centrifugation, lysed and intracellular PGE2 was measured using an enzyme immunoassay kit (Amersham Pharmacia Biotech, Buckinghamshire, UK) following the manufacturer's instructions. Prostaglandin synthesis is expressed as picograms of PGE2 synthesised per mg of tissue incubation. Each experiment corresponded to the use of one biopsy, in order to avoid variability among different biopsies. Normal volunteers without a previous pharmacological treatment were selected for these assays. The normal gastroduodenal mucosa was visually assessed by endoscopy.
Human mucosal gastric biopsies were cut into about 1 mg pieces, incubated with the indicted agents (10 μM) for 20 min at 37° C. in Hepes-glucose buffer, and then the intracellular content of PGE2 was determined as described in the Methods section. Untreated control samples were run in parallel. Data are shown as mean Values+S.D. from three independent experiments.

[4] = test system: CD43; test: Cell surface expression of CD43 in human neutrophils (immunofluorescence flow cytometry); format: cell-based; settings: Medium = 100
Text: as §1, §2, §3, §4, §5

[5] = 2.5 mg/Kg p.o., after 24 hours of intraluminal administration
[6] = 2.5 mg/Kg p.o., after 7 days of intraluminal administration
[7] = 5.0 mg/Kg p.o., after 24 hours of intraluminal administration
[8] = 5.0 mg/Kg p.o., after 7 days of intraluminal administration

## CCCCCCCCCCCCCCCCCCOCC(COP(=O)([O-])OCC[N+](C)(C)C)OC (centres unmarked) [IEC01, Edelfosine]
[1]; [5]
  % (inhibition, Sample 2 × 6 mm): 14.7%
  % (inhibition, Score): 8.6%
  % (inhibition, Weight/mm): 35.2%
  % (inhibition, Wet Weight): 35.1%
  Sample 2 × 6 mm: 373.12 ± 48.12 mg
  Score (0-10): 5.2 ± 0.73
  Weight/mm: 0.187 ± 0.02
[1]; 2.5 mg/Kg p.o., after 24 hours of intraluminal administration in the colon
  Wet Weight (colon): 1.689 ± 0.15
[1]; [6]
  % (inhibition, Sample 2 × 6 mm): 17.9%
  % (inhibition, Weight/mm): 13.3%
  % (inhibition, Wet Weight): 13.4%
  Sample 2 × 6 mm: 299.62 ± 75.58 mg
  Score (0-10): 1.2 ± 0.58
  Weight/mm: 0.150 ± 0.00
[1]; 2.5 mg/Kg p.o., after 7 days of intraluminal administration in the colon
  Wet Weight (colon): 1.354 ± 0.14
[1]; 2.5 mg/Kg p.o., after 7 days of intraluminal administration, 2.5 mg/kg
  % (inhibition, Score): 78,6%
[1]; [7]
  % (inhibition, Sample 2 × 6 mm): 61.7%
  % (inhibition, Score): 42.9%
  % (inhibition, Weight/mm): 77.3%
  % (inhibition, Wet Weight): 77.4%
  Sample 2 × 6 mm: 301.10 ± 18.95 mg
  Score (0-10): 4.0 ± 0.32
  Weight/mm: 0.157 ± 0.00
[1]; 5.0 mg/Kg p.o., after 24 hours of intraluminal administration in the colon
  Wet Weight (colon): 1.412 ± 0.06
[1]; [8]
  % (inhibition, Sample 2 × 6 mm): 71.4%
  % (inhibition, Weight/mm): 63.0%
  % (inhibition, Wet Weight): 63.0%
  Sample 2 × 6 mm: 272.14 ± 53.65 mg
  Score (0-10): 1.4 ± 0.40
  Weight/mm: 0.124 ± 0.01
[1]; 5.0 mg/Kg p.o., after 7 days of intraluminal administration in the colon
  Wet Weight (colon): 1.113 ± 0.14
[1]; 5.0 mg/Kg p.o., after 7 days of intraluminal administration, 5 mg/kg
  % (inhibition, Score): 71,4%
[2]; 10 ng/ml, rMFI=(MFIagent×100)/MFImedium
  CD11b cell surface expression (rMFI): 97.5 ± 8.5
[2]; 100 ng/ml
  CD11b cell surface expression (rMFI): 101 ± 3
[2]; 500 ng/ml
  CD11b cell surface expression (rMFI): 103 ± 3
[2]; 1 μg/ml
  CD11b cell surface expression (rMFI): 105 ± 6
[2]; 5 μg/ml
  CD11b cell surface expression (rMFI): 130 ± 15
[3]; human mucosal gastric biopsies, agents 10 μM, 20 min at 37° C., Control 115 ± 26, mean ± S.D., three experiments
  pg PGE2/mg (weight): 131 ± 29 pg PGE2/mg
[3]; normal mucosal gastric biopsies, ex vivo
  effect on mucosal PGE2 synthesis (in words): did not inhibit
[4]; 10 ng/ml
  CD43 cell surface expression (rMFI): 87.5 ± 2.5
[4]; 100 ng/ml
  CD43 cell surface expression (rMFI): 63 ± 8
[4]; 500 ng/ml
  CD43 cell surface expression (rMFI): 53 ± 5
[4]; 1 μg/ml
  CD43 cell surface expression (rMFI): 33 ± 8
[4]; 5 μg/ml
  CD43 cell surface expression (rMFI): 28 ± 7
